{"source": "paper PMC2504689", "about": "(Phytotherapy research : PTR, 2008)", "key": {"[1]": {"assay_type": "cell-based, African green monkey", "settings": "African green monkey"}, "[2]": {"test_system": "M. tuberculosis H37Rv (ATCC 27294)", "assay": "Microplate Alamar Blue Assay", "assay_type": "cell-based, Mycobacterium tuberculosis", "settings": "for MIC, H37Rv: MABA, concentration giving ≥ 90% inhibition, 7 days, 37 °C, triplicate; for SI (selectivity index = IC50/MIC), H37Rv: Vero IC50 / MIC H37Rv, limited by 120 μg/ml cytotoxicity cutoff"}, "[3]": {"test_system": "Mycobacterium tuberculosis (H37Rv and ERDMAN)", "assay": "MABA, result stated for both strains without assignment", "assay_type": "cell-based"}, "[4]": {"test_system": "M. tuberculosis Erdman (ATCC 35801)", "assay": "Microplate Alamar Blue Assay", "assay_type": "cell-based, Mycobacterium tuberculosis", "settings": "for MIC, Erdman: MABA, concentration giving ≥ 90% inhibition, 7 days, 37 °C, triplicate; for SI (selectivity index = IC50/MIC), Erdman: Vero IC50 / MIC Erdman, limited by 120 μg/ml cytotoxicity cutoff"}, "Vero cells": {"test_system": "Vero cells", "assay_type": "cell-based, African green monkey", "settings": "Vero cells, 72 hours; cutoff 120 μg/ml"}}}
{"smiles": "C=C[C@@H](O)C#CC#C[C@@H](O)/C=C\\CCCCCCC", "note": "[Compound 1, falcarindiol]", "values": [{"measurement": "IC50 at 72 h", "setting": "[1]", "value": "> 120", "unit": "µg/mL"}, {"measurement": "MIC, H37Rv", "setting": "[2]", "value": 26.7, "unit": "µg/mL"}, {"measurement": "SI (selectivity index = IC50/MIC), H37Rv", "setting": "[2]", "value": ">4"}, {"measurement": "MIC", "setting": "[3]", "value": "1.4 to 26.7", "unit": "µg/mL"}, {"measurement": "MIC, Erdman", "setting": "[4]", "value": 6.0, "unit": "µg/mL"}, {"measurement": "SI (selectivity index = IC50/MIC), Erdman", "setting": "[4]", "value": ">19"}]}
{"smiles": "C=CC(O)C#CC#CC(O)/C=C\\CCCCCCCCOC(C)=O", "note": "(stereo not drawn) [Compound 2, 9Z,17-octadecadiene-12,14-diyne-1,11,16-triol,1-acetate]", "values": [{"measurement": "Cytotoxicity IC50", "setting": "Vero cells", "value": ">120", "unit": "µg/mL"}, {"measurement": "MIC, H37Rv", "setting": "[2]", "value": 25.3, "unit": "µg/mL"}, {"measurement": "SI (selectivity index = IC50/MIC), H37Rv", "setting": "[2]", "value": ">4"}, {"measurement": "MIC, Erdman", "setting": "[4]", "value": 1.4, "unit": "µg/mL"}, {"measurement": "SI (selectivity index = IC50/MIC), Erdman", "setting": "[4]", "value": "> 100"}]}
{"smiles": "CCCCCCC/C=C\\[C@H](O)C#CC#C[C@@H](O)CC", "note": "[Compound 3, oplopandiol]", "values": [{"measurement": "IC50 at 72 h", "setting": "[1]", "value": "> 120", "unit": "µg/mL"}, {"measurement": "MIC, H37Rv", "setting": "[2]", "value": 50.2, "unit": "µg/mL"}, {"measurement": "SI (selectivity index = IC50/MIC), H37Rv", "setting": "[2]", "value": ">2"}, {"measurement": "MIC, Erdman", "setting": "[4]", "value": 49.5, "unit": "µg/mL"}, {"measurement": "SI (selectivity index = IC50/MIC), Erdman", "setting": "[4]", "value": ">2"}]}
{"smiles": "C=CC(O)C#CC#CC(O)C1OC1CCCCCCC", "note": "(stereo not drawn) [Compound 4, heptadeca-1-ene-9,10-epoxy-4,6-diyne-3,8-diol]", "values": [{"measurement": "Cytotoxicity IC50", "setting": "Vero cells", "value": ">120", "unit": "µg/mL"}]}
{"smiles": "CCCCCCC/C=C\\C(O)C#CC#CC(=O)CCOC", "note": "(stereo not drawn) [Compound 5, 8-hydroxy-1-methoxy-(Z)-9-heptadecene-4,6-diyn-3-one]", "values": [{"measurement": "IC50 at 72 h", "setting": "[1]", "value": "> 120", "unit": "µg/mL"}, {"measurement": "MIC, H37Rv", "setting": "[2]", "value": "above 60 μg/mL"}, {"measurement": "MIC", "setting": "[3]", "value": "> 60", "unit": "µg/mL"}, {"measurement": "MIC, Erdman", "setting": "[4]", "value": "above 60 μg/mL"}]}
{"smiles": "CO[C@H]1/C=C/O[C@@]2(C)Oc3c(C)c(O)c4c(O)c(c(/C=N/N5CCN(C)CC5)c(O)c4c3C2=O)NC(=O)/C(C)=C\\C=C\\[C@H](C)[C@H](O)[C@@H](C)[C@@H](O)[C@@H](C)[C@H](OC(C)=O)[C@@H]1C", "note": "[RMP, Rifampin, reference compound]", "values": [{"measurement": "IC50 at 72 h", "setting": "[1]", "value": 112, "unit": "µg/mL"}, {"measurement": "SI (selectivity index = IC50/MIC), H37Rv", "setting": "[2]", "value": 1860}, {"measurement": "SI (selectivity index = IC50/MIC), Erdman", "setting": "[4]", "value": 2232}]}
